According to patent US20250368635A1, “HETEROARYL DERIVATIVE COMPOUND, AND USES THEREOF” (VORONOI, INC., priority 2022, published 2025):

What was measured:
[1] = test system: Ba/F3 cells expressing EGFR L858R/C797S (EGFR LC); assay: Inhibition of proliferation of Ba/F3 cells expressing EGFR L858R/C797S (CellTiter-Glo, 72 h); type: cell-based; conditions: Mus musculus, BaF3, 72 hours treatment
Protocol: (§1) The following experiment was performed to evaluate the inhibitory activity of the compounds according to the present invention on the proliferation of Ba/F3 cells expressing EGFR Del19/C797S (EGFR DC) and EGFR L858R/C797S (EGFR LC) mutations.
(§2) Ba/F3 cells were cultured using medium (RPMI-1640) containing 10% fetal bovine serum (FBS) and 5 ng/ml IL-3 (R&D Systems). The transduced Ba/F3 cells were cultured by adding 1 μg/ml puromycin (Invitrogen) to the same medium.
(§3) 24 hours prior to treatment with compounds, 3,000 to 5,000 cells were seeded on a well plate (white clear bottom 96 well plate, Corning). The compounds were diluted in dimethyl sulfoxide (3-fold dilution, total of 12 concentrations) and injected at 1 μl each so that the final concentration was 0.2 nM to 5 μM. After 72 hours post treatment with compounds, living cells were stored at room temperature for 10 minutes using CellTiter-Glo luminescent cell-viability reagent (Promega), and the luminescence intensity thereof was measured using a reader (Synergy Neo, Biotek). Each test was repeated three times. The result values were calculated as a cell growth rate (%) compared to the control group. A graph was created using the GraphPad Prism version 8.3.0 program, and GI50 values were calculated.

[2] = test system: Ba/F3 cells expressing EGFR Del19/C797S (EGFR DC); assay: Inhibition of proliferation of Ba/F3 cells expressing EGFR Del19/C797S (CellTiter-Glo, 72 h); type: cell-based; conditions: Mus musculus, BaF3, 72 hours treatment
Protocol: as §1, §2, §3

Row | GI50 [1] [nM] | GI50 [2] [nM] | Compound
1 | < 100 | < 100 | COc1cc(N2CCC3(CCOCC3)CC2)c(-c2cnn(C)c2)cc1Nc1cc(N2OCC[C@@H]2c2cccc(F)c2F)ncn1 [Example 28, (R)-6-(3-(2,3-difluorophenyl)isoxazolidin-2-yl)-N-(2-methoxy-5-(1-methyl-1H-pyrazol-4-yl)-4-(3-oxa-9-azaspiro[5.5]undecan-9-yl)phenyl)pyrimidin-4-amine]
2 | < 100 | < 100 | COc1cc(N2CCC3(CC2)CC(OC)C3)c(-c2cnn(C)c2)cc1Nc1cc(N2OCC[C@@H]2c2cccc(F)c2F)ncn1 [Example 30, (R)-6-(3-(2,3-difluorophenyl)isoxazolidin-2-yl)-N-(2-methoxy-4-(2-methoxy-7-azaspiro[3.5]nonan-7-yl)-5-(1-methyl-1H-pyrazol-4-yl)phenyl)pyrimidin-4-amine]
3 | 100 to 1000 | 100 to 1000 | COc1cc(N2CCC3(CC2)CC3(F)F)c(-c2cnn(C)c2)cc1Nc1cc(N2OCC[C@@H]2c2cccc(F)c2F)ncn1 [Example 32, (R)-N-(4-(1,1-difluoro-6-azaspiro[2.5]octan-6-yl)-2-methoxy-5-(1-methyl-1H-pyrazol-4-yl)phenyl)-6-(3-(2,3-difluorophenyl)isoxazolidin-2-yl)pyrimidin-4-amine]
4 | 100 to 1000 | 100 to 1000 | COc1cc(N2CCC3C(C2)C3(F)F)c(-c2cnn(C)c2)cc1Nc1cc(N2OCC[C@@H]2c2cccc(F)c2F)ncn1 (stereo partly drawn) [Example 41, N-(4-(7,7-difluoro-3-azabicyclo[4.1.0]heptan-3-yl)-2-methoxy-5-(1-methyl-1H-pyrazol-4-yl)phenyl)-6-((R)-3-(2,3-difluorophenyl)isoxazolidin-2-yl)pyrimidin-4-amine]
5 | < 100 | < 100 | COc1cc(N2CCC3(CCN(CCF)CC3)CC2)c(-c2cnn(C)c2)cc1Nc1cc(N2OCC[C@@H]2c2cccc(F)c2F)ncn1 [Example 50, (R)-6-(3-(2,3-difluorophenyl)isoxazolidin-2-yl)-N-(4-(9-(2-fluoroethyl)-3,9-diazaspiro[5.5]undecan-3-yl)-2-methoxy-5-(1-methyl-1H-pyrazol-4-yl)phenyl)pyrimidin-4-amine]
